Laboratory results taken from paper PMC6122390, “Synthesis of 1,4-imino-L-lyxitols modified at C-5 and their evaluation as inhibitors of GH38 α-mannosidases” (Beilstein Journal of Organic Chemistry, 2018).
Like-named read-outs stand apart in the source and are kept apart here.

Experiments:
[1] = target: lysosomal α-mannosidase II (LManII) (Drosophila melanogaster, UniProt Q9VKV1); assay: Inhibition of lysosomal α-mannosidase II (LManII), pNP-Man substrate; format: biochemical; details: n.i. = no inhibition, 2 mM pNP-Man, pH 5.2
Description: (§1) The purification and characterization of recombinant Drosophila melanogaster Golgi α-mannosidase II [9] (GMIIb) and lysosomal α-mannosidase II (LManII) was carried out as already described. Activity of prepared mannosidases was measured using p-nitrophenyl-α-D-mannopyranoside (pNP-Man; Sigma-Aldrich) as a substrate at 2 mM concentration prepared from a 100 mM stock in dimethyl sulfoxide by dilution in 50 mM acetate buffer at optimal pH for the enzymes (Jack bean α-mannosidase (JBMan) at pH 5.0, Golgi α-mannosidase (GMIIb) at pH 6.0 and lysosomal α-mannosidase (LManII) at pH 5.2) and 0.5 μL of the enzyme (0.05 µg of protein for Jack bean α-mannosidase), in a total volume of 50 μL for 1–2 h at 37 °C. GMIIb was assayed in the presence of 0.5 mM CoCl2. Pyrrolidines 2–5 used in biochemical evaluation were lyophilized before use. The inhibitors 2–5 were pre-incubated with the enzyme in the buffer for 5 min at rt and the reaction was started by addition of the substrate. The reactions were terminated with two volumes (0.1 mL) of 0.5 M sodium carbonate and the production of p-nitrophenol was measured at 405 nm using a multimode reader Mithras LB943 (Berthold Technologies). The IC50 value was determined with 2 mM pNP-Man. All biochemical assays were performed in 96 well microplates in triplicate.

[2] = target: T1, Jack bean α-mannosidase (JBMan) (Canavalia ensiformis, UniProt C0HJB3); assay: Inhibition of jack bean α-mannosidase (JBMan), pNP-Man substrate; format: biochemical; details: n.i. = no inhibition, 2 mM pNP-Man; for inhibition at 2000 µM: pH 5, 2 mM inhibitor, read-out: JBMan (%) inhibition in the presence of 2 mM inhibitor concentration; for JBMan (%) inhibition in the presence of 2 mM inhibitor concentration: pH 5.0
T1 construct: purchased
T1 sequence (C0HJB3 1-981): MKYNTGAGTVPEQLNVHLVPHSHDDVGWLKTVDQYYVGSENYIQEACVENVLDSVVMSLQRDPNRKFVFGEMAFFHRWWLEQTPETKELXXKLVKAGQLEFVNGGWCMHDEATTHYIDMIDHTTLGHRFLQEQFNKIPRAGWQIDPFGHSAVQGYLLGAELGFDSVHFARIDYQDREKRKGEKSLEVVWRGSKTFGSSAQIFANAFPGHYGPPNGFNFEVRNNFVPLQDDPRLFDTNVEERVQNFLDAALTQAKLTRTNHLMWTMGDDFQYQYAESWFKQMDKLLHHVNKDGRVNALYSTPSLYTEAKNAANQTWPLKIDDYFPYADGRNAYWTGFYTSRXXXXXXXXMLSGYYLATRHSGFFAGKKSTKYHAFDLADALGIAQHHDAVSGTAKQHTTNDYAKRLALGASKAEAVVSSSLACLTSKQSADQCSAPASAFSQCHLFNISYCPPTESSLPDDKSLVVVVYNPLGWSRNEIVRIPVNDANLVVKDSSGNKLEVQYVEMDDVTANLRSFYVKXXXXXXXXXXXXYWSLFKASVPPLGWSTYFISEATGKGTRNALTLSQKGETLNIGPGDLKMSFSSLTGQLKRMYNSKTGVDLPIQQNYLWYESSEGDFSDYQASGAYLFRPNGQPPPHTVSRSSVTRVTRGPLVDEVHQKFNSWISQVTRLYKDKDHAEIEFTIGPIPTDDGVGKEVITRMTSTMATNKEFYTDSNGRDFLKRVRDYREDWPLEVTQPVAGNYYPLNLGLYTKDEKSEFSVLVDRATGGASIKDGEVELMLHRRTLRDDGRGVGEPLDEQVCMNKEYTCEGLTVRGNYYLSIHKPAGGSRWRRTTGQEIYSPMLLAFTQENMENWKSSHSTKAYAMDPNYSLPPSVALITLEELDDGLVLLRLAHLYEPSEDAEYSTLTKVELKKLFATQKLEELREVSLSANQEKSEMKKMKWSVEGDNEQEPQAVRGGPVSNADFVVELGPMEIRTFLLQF
Description: as §1

[3] = target: Drosophila melanogaster Golgi α-mannosidase II (GMIIb) (Drosophila melanogaster, UniProt Q9VF33); assay: Inhibition of Golgi α-mannosidase II (GMIIb), pNP-Man substrate; format: biochemical; details: for IC50: 2 mM pNP-Man; for fold decrease in inhibition activity against GMIIb in comparison with 1a: relative to 1a
Description: as §1

[4] = pH 6.0, 0.5 mM CoCl2, 37 °C, read-out: GMIIb [IC50 (M)]

Drosophila melanogaster Golgi α-mannosidase II (GMIIb), sequence (Q9VF33 entry or part of it): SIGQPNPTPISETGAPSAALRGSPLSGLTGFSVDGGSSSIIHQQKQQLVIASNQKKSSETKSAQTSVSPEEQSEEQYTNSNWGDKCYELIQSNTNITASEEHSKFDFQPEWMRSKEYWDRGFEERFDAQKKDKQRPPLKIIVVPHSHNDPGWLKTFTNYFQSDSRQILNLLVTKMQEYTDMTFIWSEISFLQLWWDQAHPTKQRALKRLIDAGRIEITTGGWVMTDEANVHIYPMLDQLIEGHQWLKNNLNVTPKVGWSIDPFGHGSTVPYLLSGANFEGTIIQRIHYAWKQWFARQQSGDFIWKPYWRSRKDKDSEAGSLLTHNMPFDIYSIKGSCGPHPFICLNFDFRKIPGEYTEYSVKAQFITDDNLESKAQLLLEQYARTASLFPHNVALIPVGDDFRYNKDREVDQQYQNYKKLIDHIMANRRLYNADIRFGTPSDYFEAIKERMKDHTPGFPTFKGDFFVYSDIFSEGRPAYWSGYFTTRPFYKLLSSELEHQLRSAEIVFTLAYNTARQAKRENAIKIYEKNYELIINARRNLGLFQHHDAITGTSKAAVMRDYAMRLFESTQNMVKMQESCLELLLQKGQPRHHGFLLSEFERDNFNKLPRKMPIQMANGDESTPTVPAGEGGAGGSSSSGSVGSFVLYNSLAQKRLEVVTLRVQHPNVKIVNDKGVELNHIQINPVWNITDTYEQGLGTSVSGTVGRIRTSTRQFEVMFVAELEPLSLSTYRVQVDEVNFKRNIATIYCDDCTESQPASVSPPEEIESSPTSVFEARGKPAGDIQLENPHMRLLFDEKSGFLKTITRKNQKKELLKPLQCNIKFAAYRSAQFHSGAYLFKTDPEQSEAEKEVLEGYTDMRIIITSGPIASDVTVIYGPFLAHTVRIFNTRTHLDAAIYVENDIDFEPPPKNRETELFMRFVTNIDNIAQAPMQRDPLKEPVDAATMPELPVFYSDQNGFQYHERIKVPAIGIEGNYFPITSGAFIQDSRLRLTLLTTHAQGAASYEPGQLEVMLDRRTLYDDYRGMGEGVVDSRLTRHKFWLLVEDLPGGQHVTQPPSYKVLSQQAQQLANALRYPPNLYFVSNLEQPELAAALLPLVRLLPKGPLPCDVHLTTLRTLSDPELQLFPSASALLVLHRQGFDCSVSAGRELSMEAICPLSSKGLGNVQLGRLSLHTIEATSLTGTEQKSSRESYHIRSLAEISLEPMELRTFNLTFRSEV
lysosomal α-mannosidase II (LManII), sequence (Q9VKV1 entry or part of it): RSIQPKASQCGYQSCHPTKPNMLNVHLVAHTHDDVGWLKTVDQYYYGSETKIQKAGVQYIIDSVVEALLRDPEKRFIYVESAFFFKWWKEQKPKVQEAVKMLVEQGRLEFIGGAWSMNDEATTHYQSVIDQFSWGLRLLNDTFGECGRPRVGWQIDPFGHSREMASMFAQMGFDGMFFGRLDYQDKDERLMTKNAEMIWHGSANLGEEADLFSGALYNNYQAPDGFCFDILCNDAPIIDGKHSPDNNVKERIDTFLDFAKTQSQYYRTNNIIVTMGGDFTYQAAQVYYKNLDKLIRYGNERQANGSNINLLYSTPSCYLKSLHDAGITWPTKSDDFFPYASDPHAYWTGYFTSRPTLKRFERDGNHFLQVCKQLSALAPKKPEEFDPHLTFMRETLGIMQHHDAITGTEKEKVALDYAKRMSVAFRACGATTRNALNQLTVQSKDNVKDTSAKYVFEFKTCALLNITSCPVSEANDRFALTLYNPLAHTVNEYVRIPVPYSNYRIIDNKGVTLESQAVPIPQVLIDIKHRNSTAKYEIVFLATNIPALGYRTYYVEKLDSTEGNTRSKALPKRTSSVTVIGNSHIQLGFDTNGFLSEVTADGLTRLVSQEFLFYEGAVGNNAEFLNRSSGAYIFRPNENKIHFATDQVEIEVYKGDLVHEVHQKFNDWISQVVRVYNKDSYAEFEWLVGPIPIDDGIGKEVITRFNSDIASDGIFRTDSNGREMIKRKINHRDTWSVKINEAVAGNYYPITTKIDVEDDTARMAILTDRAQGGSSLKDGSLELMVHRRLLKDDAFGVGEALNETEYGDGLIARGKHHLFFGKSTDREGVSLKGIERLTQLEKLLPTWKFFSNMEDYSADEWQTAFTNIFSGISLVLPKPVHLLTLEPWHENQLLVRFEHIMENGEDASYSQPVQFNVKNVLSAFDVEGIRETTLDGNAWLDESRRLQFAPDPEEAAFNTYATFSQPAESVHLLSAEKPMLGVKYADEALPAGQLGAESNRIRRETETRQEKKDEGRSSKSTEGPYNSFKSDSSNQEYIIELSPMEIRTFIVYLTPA

LmanII inhibition in the presence of 2 mM inhibitor concentration [1] | inhibition at 2000 µM [2] [%] | IC50 [3, 4] [M] | fold decrease in inhibition activity against GMIIb in comparison with 1a [3] | IC50 ([3]; pH 6.0, read-out: GMIIb IC50) [M] | JBMan (%) inhibition in the presence of 2 mM inhibitor concentration [2] | melting point [°C] | SMILES
n.i.^a | 40 | 0.00265 | – | – | – | – | C[C@H](O)[C@H]1[C@@H](O)[C@@H](O)CN1Cc1ccc(Br)cc1 [Compound 5b, (2S,3R,4S)-1-(4-Bromobenzyl)-2-((S)-1-hydroxyethyl)pyrrolidine-3,4-diol]
n.i.^a | 21 | 0.00195 | about 25 fold | – | – | – | C[C@H](O)[C@H]1[C@@H](O)[C@@H](O)CN1Cc1ccccc1 [Compound 5a, (2S,3R,4S)-1-Benzyl-2-((S)-1-hydroxyethyl)pyrrolidine-3,4-diol]
n.i.^a | 2 | 0.0018 | about 25 fold | – | – | – | C[C@@H](O)[C@H]1[C@@H](O)[C@@H](O)CN1Cc1ccccc1 [Compound 4a]
n.i.^a | 4 | 0.0016 | – | – | – | – | C[C@@H](O)[C@H]1[C@@H](O)[C@@H](O)CN1Cc1ccc(Br)cc1 [Compound 4b]
n.i.^a | 39 | 0.00045 | – | < 0.0005 | – | – | CC[C@H]1[C@@H](O)[C@@H](O)CN1Cc1ccc(I)cc1 [Compound 3c]
n.i.^a | – | 0.00036 | – | – | n.i. | – | C[C@H]1[C@@H](O)[C@@H](O)CN1Cc1ccccc1 [Compound 2a]
n.i.^a | 14 | 0.00095 | – | – | – | – | CC[C@H]1[C@@H](O)[C@@H](O)CN1Cc1ccc(Br)cc1 [Compound 3b]
n.i.^a | – | 0.00035 | – | – | n.i. | – | C[C@H]1[C@@H](O)[C@@H](O)CN1Cc1ccc(Br)cc1 [Compound 2b]
n.i.^a | 17 | 0.0019 | – | – | – | – | C[C@@H](O)[C@H]1[C@@H](O)[C@@H](O)CN1Cc1ccc(I)cc1 [Compound 4c]
n.i.^a | 3 | 0.00075 | – | – | – | 76 to 78 | CC[C@H]1[C@@H](O)[C@@H](O)CN1Cc1ccccc1 [Compound 3a]
n.i.^a | – | 0.0003 | – | – | n.i. | – | C[C@H]1[C@@H](O)[C@@H](O)CN1Cc1ccc(I)cc1 [Compound 2c]
n.i.^a | 40 | 0.00295 | – | – | 38% | – | C[C@H](O)[C@H]1[C@@H](O)[C@@H](O)CN1Cc1ccc(I)cc1 [Compound 5c, (2S,3R,4S)-1-(4-Iodobenzyl)-2-((S)-1-hydroxyethyl)pyrrolidine-3,4-diol]
